As usually defined, the IC50 is the concentration at which inhibition is half-maximal. A lower IC50 goes with greater potency.

This passage reports IC50 results from US20260285875A1, “INHIBITORS OF PARG” (858 Therapeutics, Inc., priority 2023, published 2026).

The target in the test is T1, cellular PARG (Homo sapiens, UniProt Q86W56).
T1 construct: endogenous in cells; host or cells: HeLa
The test can be described thus: Nuclear PAR accumulation assay (immunofluorescence high-content imaging, MMS-treated HeLa cells). It counts as cell-based. As to conditions: 1 hour compound then MMS 50 μg/mL for an additional hour. In short, it runs like this:
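HeLa cells pretreated with compound for 1 h at 37° C, then given 50 μg/mL MMS for another hour. After methanol fixation, PAR was immunostained with DAPI nuclear counterstain; per-nucleus intensity and percent PAR-positive cells were imaged at 20× (≥1,000 cells/well). IC50 from four-parameter logistic fit.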

Molecules are shown by their SMILES.

T1 sequence (Q86W56 whole entry): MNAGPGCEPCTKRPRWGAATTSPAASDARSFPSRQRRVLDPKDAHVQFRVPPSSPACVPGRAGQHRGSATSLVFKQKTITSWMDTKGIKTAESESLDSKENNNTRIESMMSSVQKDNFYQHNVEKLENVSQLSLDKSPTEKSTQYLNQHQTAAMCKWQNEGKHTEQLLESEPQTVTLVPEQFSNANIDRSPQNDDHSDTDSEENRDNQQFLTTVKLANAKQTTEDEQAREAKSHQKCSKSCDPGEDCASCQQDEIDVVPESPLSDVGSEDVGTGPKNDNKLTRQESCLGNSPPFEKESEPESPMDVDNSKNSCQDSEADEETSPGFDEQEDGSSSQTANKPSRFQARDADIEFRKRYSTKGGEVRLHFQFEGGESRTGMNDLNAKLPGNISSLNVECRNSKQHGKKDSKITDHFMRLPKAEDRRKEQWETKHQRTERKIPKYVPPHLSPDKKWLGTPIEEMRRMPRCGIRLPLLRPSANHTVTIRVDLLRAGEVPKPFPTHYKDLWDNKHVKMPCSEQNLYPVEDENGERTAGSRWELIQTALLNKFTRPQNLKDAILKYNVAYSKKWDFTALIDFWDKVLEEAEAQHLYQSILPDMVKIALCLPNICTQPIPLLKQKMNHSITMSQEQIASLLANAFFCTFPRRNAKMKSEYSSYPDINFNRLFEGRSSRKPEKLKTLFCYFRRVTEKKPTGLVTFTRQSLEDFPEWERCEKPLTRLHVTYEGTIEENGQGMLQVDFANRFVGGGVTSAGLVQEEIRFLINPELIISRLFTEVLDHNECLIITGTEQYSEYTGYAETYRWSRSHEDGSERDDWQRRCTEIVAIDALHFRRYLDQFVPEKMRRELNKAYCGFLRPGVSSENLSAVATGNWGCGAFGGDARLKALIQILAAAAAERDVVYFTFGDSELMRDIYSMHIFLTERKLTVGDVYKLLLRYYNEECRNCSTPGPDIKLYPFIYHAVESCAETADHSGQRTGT

`C=Cc1cc(CN2C(=O)c3cc(S(=O)(=O)NC4(C)CC4)ccc3N3C2=NC[C@H]3C)ccn1` [Example 255, (R)-1-methyl-N-(1-methylcyclopropyl)-5-oxo-4-((2-vinylpyridin-4-yl)methyl)-1,2,4,5-tetrahydroimidazo[1,2-a]quinazoline-7-sulfonamide] displayed an IC50 of less than 100 nM. With `CN1CCC[C@@H]1C#C[C@@H]1CN=C2N(Cc3cnn(C)c3)C(=O)c3cc(S(=O)(=O)NC4(C)CC4)ccc3N21` [Example 256, (R)-4-((1-methyl-1H-pyrazol-4-yl)methyl)-N-(1-methylcyclopropyl)-1-(((R)-1-methylpyrrolidin-2-yl)ethynyl)-5-oxo-1,2,4,5-tetrahydroimidazo[1,2-a]quinazoline-7-sulfonamide] the figure was less than 100 nM; with `CCN1C(=O)c2cc(S(=O)(=O)NC3(C)CC3)ccc2N2C1=NC[C@H]2C#Cc1nn(C)nc1C` [Example 257, (R)-1-((2,5-dimethyl-2H-1,2,3-triazol-4-yl)ethynyl)-4-ethyl-N-(1-methylcyclopropyl)-5-oxo-1,2,4,5-tetrahydroimidazo[1,2-a]quinazoline-7-sulfonamide], less than 100 nM. In turn, `[2H]C([2H])(c1cnn(C)c1)N1C(=O)c2cc(S(=O)(=O)NC3(C)CC3)ccc2N2C1=NC[C@H]2C#Cc1cnc(OC)nc1` [Example 259, (R)-1-((2-methoxypyrimidin-5-yl)ethynyl)-4-((1-methyl-1H-pyrazol-4-yl)methyl-d2)-N-(1-methylcyclopropyl)-5-oxo-1,2,4,5-tetrahydroimidazo[1,2-a]quinazoline-7-sulfonamide] had a 50% inhibitory concentration (IC50) of less than 100 nM. In turn, `[2H]C([2H])(c1cnn(C)c1)N1C(=O)c2cc(S(=O)(=O)NC3(C)CC3)ccc2N2C1=NC[C@H]2C#Cc1cccnn1` [Example 260, (R)-4-((1-methyl-1H-pyrazol-4-yl)methyl-d2)-N-(1-methylcyclopropyl)-5-oxo-1-(pyridazin-3-ylethynyl)-1,2,4,5-tetrahydroimidazo[1,2-a]quinazoline-7-sulfonamide] gave an IC50 of less than 100 nM. As to `[2H]C([2H])(c1cnn(C)c1)N1C(=O)c2cc(S(=O)(=O)NC3(C)CC3)ccc2N2C1=NC[C@H]2C#Cc1cnc(C2CC2)nc1` [Example 261, (R)-1-((2-cyclopropylpyrimidin-5-yl)ethynyl)-4-((1-methyl-1H-pyrazol-4-yl)methyl-d2)-N-(1-methylcyclopropyl)-5-oxo-1,2,4,5-tetrahydroimidazo[1,2-a]quinazoline-7-sulfonamide], the IC50 is less than 100 nM. With `[2H]C([2H])(c1cnn(C)c1)N1C(=O)c2cc(S(=O)(=O)NC3(C)CC3)ccc2N2C1=NC[C@H]2C#Cc1cncnc1OC` [Example 262, (R)-1-((4-methoxypyrimidin-5-yl)ethynyl)-4-((1-methyl-1H-pyrazol-4-yl)methyl-d2)-N-(1-methylcyclopropyl)-5-oxo-1,2,4,5-tetrahydroimidazo[1,2-a]quinazoline-7-sulfonamide] the figure was less than 100 nM; with `[2H]C([2H])(c1cnn(C)c1)N1C(=O)c2cc(S(=O)(=O)NC3(C)CC3)ccc2N2C1=NC[C@H]2C#Cc1cncnc1NC` [Example 263, (R)-4-((1-methyl-1H-pyrazol-4-yl)methyl-d2)-1-((4-(methylamino)pyrimidin-5-yl)ethynyl)-N-(1-methylcyclopropyl)-5-oxo-1,2,4,5-tetrahydroimidazo[1,2-a]quinazoline-7-sulfonamide], less than 100 nM. Compound `CCN1C(=O)c2cc(S(=O)(=O)NC3(C)CC3)c(F)cc2N2C1=N[C@H]1CCC[C@H]12` [Example 264, (7aS,10aR)-6-ethyl-2-fluoro-N-(1-methylcyclopropyl)-5-oxo-6,7a,8,9,10,10a-hexahydro-5H-cyclopenta[4,5]imidazo[1,2-a]quinazoline-3-sulfonamide] gave an IC50 of less than 100 nM.

Regarding `CCN1C(=O)c2cc(S(=O)(=O)NC3(C)CC3)ccc2N2C1=NC[C@H]2C#Cc1cn(C)nc1C` [Example 265, (R)-1-((1,3-dimethyl-1H-pyrazol-4-yl)ethynyl)-4-ethyl-N-(1-methylcyclopropyl)-5-oxo-1,2,4,5-tetrahydroimidazo[1,2-a]quinazoline-7-sulfonamide], the IC50 is less than 100 nM. Turning to `[2H]C([2H])(c1cnn(C)c1)N1C(=O)c2cc(S(=O)(=O)NC3(C)CC3)ccc2N2C1=NC[C@H]2C#Cc1nn(C)nc1C` [Example 266, (R)-1-((2,5-dimethyl-2H-1,2,3-triazol-4-yl)ethynyl)-4-((1-methyl-1H-pyrazol-4-yl)methyl-d2)-N-(1-methylcyclopropyl)-5-oxo-1,2,4,5-tetrahydroimidazo[1,2-a]quinazoline-7-sulfonamide], the IC50 was less than 100 nM. Turning to `C[C@@H]1CN=C2N(Cc3ccnc(/C=C/CN(C)C)c3)C(=O)c3cc(S(=O)(=O)NC4(C)CC4)ccc3N21` [Example 267, (R,E)-4-((2-(3-(dimethylamino)prop-1-en-1-yl)pyridin-4-yl)methyl)-1-methyl-N-(1-methylcyclopropyl)-5-oxo-1,2,4,5-tetrahydroimidazo[1,2-a]quinazoline-7-sulfonamide], the IC50 is 1000 to 10000 nM. Regarding `[2H]C([2H])(c1cnn(C)c1)N1C(=O)c2cc(S(=O)(=O)NC3(C)CC3)ccc2N2C1=NC[C@H]2C#Cc1cncnc1N` [Example 268, (R)-1-((4-aminopyrimidin-5-yl)ethynyl)-4-((1-methyl-1H-pyrazol-4-yl)methyl-d2)-N-(1-methylcyclopropyl)-5-oxo-1,2,4,5-tetrahydroimidazo[1,2-a]quinazoline-7-sulfonamide], the IC50 is less than 100 nM. In the case of `[2H]C([2H])(c1cnn(C)c1)N1C(=O)c2cc(S(=O)(=O)NC3(C)CC3)ccc2N2C1=NC[C@H]2C#Cc1cncc(OC)c1` [Example 269, (R)-1-((5-methoxypyridin-3-yl)ethynyl)-4-((1-methyl-1H-pyrazol-4-yl)methyl-d2)-N-(1-methylcyclopropyl)-5-oxo-1,2,4,5-tetrahydroimidazo[1,2-a]quinazoline-7-sulfonamide] it was less than 100 nM. As to `CN(C)C1([C@@H]2CN=C3N(Cc4cnn(C)c4)C(=O)c4cc(S(=O)(=O)NC5(C)CC5)ccc4N32)CC1` [Example 270, (S)-1-(1-(dimethylamino)cyclopropyl)-4-((1-methyl-1H-pyrazol-4-yl)methyl)-N-(1-methylcyclopropyl)-5-oxo-1,2,4,5-tetrahydroimidazo[1,2-a]quinazoline-7-sulfonamide], the IC50 is less than 100 nM. For `COc1ccc(CN2C(=O)c3cc(S(=O)(=O)NC4(C)CC4)ccc3N3C2=N[C@H]2CCC[C@H]23)cn1` [Example 273, (7aS,10aR)-6-((6-methoxypyridin-3-yl)methyl)-N-(1-methylcyclopropyl)-5-oxo-6,7a,8,9,10,10a-hexahydro-5H-cyclopenta[4,5]imidazo[1,2-a]quinazoline-3-sulfonamide], the IC50 was 100 to 1000 nM.

Compound `[2H]C([2H])(c1cnn(C)c1)N1C(=O)c2cc(S(=O)(=O)NC3(C)CC3)c(F)cc2N2CC(C)(C)N=C21` [Example 274, 8-fluoro-2,2-dimethyl-4-((1-methyl-1H-pyrazol-4-yl)methyl-d2)-N-(1-methylcyclopropyl)-5-oxo-1,2,4,5-tetrahydroimidazo[1,2-a]quinazoline-7-sulfonamide] registered an IC50 of less than 100 nM.

On to `[2H]C([2H])(c1cnn(C)c1)N1C(=O)c2cc(S(=O)(=O)NC3(C)CC3)ccc2N2C1=NC[C@H]2C#Cc1cnc(C)nc1` [Example 275, (R)-4-((1-methyl-1H-pyrazol-4-yl)methyl-d2)-N-(1-methylcyclopropyl)-1-((2-methylpyrimidin-5-yl)ethynyl)-5-oxo-1,2,4,5-tetrahydroimidazo[1,2-a]quinazoline-7-sulfonamide], for which the IC50 was less than 100 nM. In the case of `CN1CCC[C@H]1[C@@H]1CN=C2N(Cc3cnn(C)c3)C(=O)c3cc(S(=O)(=O)NC4(C)CC4)ccc3N21` [Example 276, (S)-4-((1-methyl-1H-pyrazol-4-yl)methyl)-N-(1-methylcyclopropyl)-1-((S)-1-methylpyrrolidin-2-yl)-5-oxo-1,2,4,5-tetrahydroimidazo[1,2-a]quinazoline-7-sulfonamide] it was less than 100 nM; in that of `Cc1nn(C)cc1C#C[C@@H]1CN=C2N(CC3CC3)C(=O)c3cc(S(=O)(=O)NC4(C)CC4)ccc3N21` [Example 277, (R)-4-(cyclopropylmethyl)-1-((1,3-dimethyl-1H-pyrazol-4-yl)ethynyl)-N-(1-methylcyclopropyl)-5-oxo-1,2,4,5-tetrahydroimidazo[1,2-a]quinazoline-7-sulfonamide], less than 100 nM; in that of `C[C@@H]1CN=C2N(CC#Cc3ccc(F)nc3)C(=O)c3cc(S(=O)(=O)NC4(C)CC4)ccc3N21` [Example 278, (R)-4-(3-(6-fluoropyridin-3-yl)prop-2-yn-1-yl)-1-methyl-N-(1-methylcyclopropyl)-5-oxo-1,2,4,5-tetrahydroimidazo[1,2-a]quinazoline-7-sulfonamide], 100 to 1000 nM. Regarding `CC(=O)N1CCn2ncc(CN3C(=O)c4cc(S(=O)(=O)NC5(C)CC5)ccc4N4C3=NC[C@H]4C)c2C1` [Example 279, (R)-4-((5-acetyl-4,5,6,7-tetrahydropyrazolo[1,5-a]pyrazin-3-yl)methyl)-1-methyl-N-(1-methylcyclopropyl)-5-oxo-1,2,4,5-tetrahydroimidazo[1,2-a]quinazoline-7-sulfonamide], the IC50 was in the range of 100 to 1000 nM.

`[2H]C([2H])(c1cnn(C)c1)N1C(=O)c2cc(S(=O)(=O)NC3(C)CC3)ccc2N2C1=NC[C@H]2C#Cc1ccc(N(C)C)nc1` [Example 280, (R)-1-((6-(dimethylamino)pyridin-3-yl)ethynyl)-4-((1-methyl-1H-pyrazol-4-yl)methyl-d2)-N-(1-methylcyclopropyl)-5-oxo-1,2,4,5-tetrahydroimidazo[1,2-a]quinazoline-7-sulfonamide] gave an IC50 of less than 100 nM.
